Experimental data taken from article PMC6350196 (Drug Metabolism Letters, 2018).

Assay: QSRR estimation of CHIn+Fbt and CHIbt from LC retention times
Assay type: physicochemical
Conditions: predicted (QSRR, equation 13); parent-drug label = average for that drug

CHIbt, aromatic oxidation (w/o HB): -16.4 | CHIbt, aromatic oxidation with HB: -2.9
SMILES: CC(C)c1c(C(=O)Nc2ccccc2)c(-c2ccccc2)c(-c2ccc(F)cc2)n1CC[C@@H](O)C[C@@H](O)CC(=O)O [atorvastatin]
